US20030134859A1 (SANKYO COMPANY, LIMITED, priority 2000, published 2003)
Read-outs that look alike come from different tables or passages of the source.

Key:
[1] = test system: Balb/c mice; assay: Prevention of concanavalin A liver injury; format: in vivo, mouse; settings: Mus musculus, po, 24 h, 10 mg/mL suspension at 10 mL/kg, 30 min prior to Con A, plasma 24 hr after Con A
Experimental: Five (5) Balb/c mice (female, 6-8 weeks old) per group were used. Liver injury was elicited in the mouse by injection of concanavalin A (Con A) dissolved in saline (2.0 mg/mL) into the tail vein at a volume of 10 mL/kg of the solution (Hepatology, 21, 190-198 (1995)).
The test compounds were suspended in distilled water containing 0.5% CMC, at a concentration of 10 mg/mL. This suspended solution was orally administered to the mouse at a volume of 10 mL/kg, 30 min prior to injection of Con A (group A).
Apart from this group, distilled water containing 0.5% CMC powder, instead of the test compound, was orally administered in the second group of mice (group B). In the 3rd group, nothing was given to the mice (group C).
Twenty four (24) hr after the injection of Con A, blood was collected from the abdominal aorta of the mice and the plasma was isolated while mixing with heparin. Activities of glutamic acid oxaloacetic acid transaminase (AST) and glutamic acid pyruvic acid transaminase (ALT) in the plasma were determined according to the methods described by Nagakawa et al. (J. Pharmacol. Exp. Ther., 264, 496-500 (1993)). From the values obtained inhibitory rates of the test compound against AST and ALT levels which had been increased by injection of Con A, were obtained based on the following equation.
Inhibitory Rate(%)={1−[(A−C)/(B−C)]}×100
A: The average level of AST or ALT in the group A
B: The average level of AST or ALT in the group B
C: The average level of AST or ALT in the group C

[2] = test system: ABCA1 mRNA; assay: Quantitative analysis of ABCA1 mRNA (TaqMan PCR) in RAW264.7 cells; format: cell-based, mouse; settings: 100 nM test compound, 24 hr, normalised to β-actin, DMSO = 100
Experimental: The mouse monocyte/macrophage cell line, RAW264.7 (ATCC TIB71) was purchased from Dainippon Pharmaceutical Co., Ltd. As the medium, the Dulbecco's modified Eagle's medium (DMEM medium; GIBCO, Cat. No. 11995-040) containing bovine fetal serum (the final concentration: 10% (v/v), MOREGATE, lot No. 474030), penicillin G (the final concentration: 50 units/mL, GIBCO) and streptomycin (the final concentration: 20 μg/mL, GIBCO) was used.
The culture of RAW264.7 cells was carried out in a CO2 incubator (37° C., 95% R.H., 5% of CO2).
A 2 ml volume of RAW264.7 cells suspension (1×10^6 cells/mL) was plated in each well of a 6-well plate (2×10^6 cells/well) and the cells were incubated for 2 hr in a CO2 incubator. The test compounds dissolved in DMSO were diluted with DMEM medium by 20 times, and were added to the wells at a volume of 4 μL/well (final concentration of the test compound: 100 nM). As the control, the DMSO solution was diluted with the DMEM medium by 20 times, and was added to the wells at the volume of 4 μL/well. After the cells were cultured in a CO2 incubator for 24 hr, the medium was removed and the total RNA was purified by using an RNeasy Mini Kit (Qiagen), according to the protocol attached. The concentration of the RNA in the samples obtained was calculated from absorbance at 260 nm (A260=1=40 μg/ml). Six (6) μg of total RNA were diluted with RNAase-free water so as to be 22.6 μL, which was heated at 65° C. for 10 min, and then was cooled on ice. The RNA in the solution was used as the template, and the cDNA was synthesized by using a First-strand cDNA Synthesis Kit (Amersham Pharmacia Biotech). In this reaction, a solution was prepared having the following composition and was reacted at 37° C. for 1 hr.
After the reaction, 3 μL of soution were collected from each of the reaction mixtures of the test compound-treated cell samples and that of the control cell samples. The mixed solution was used as the standard solution. The standard solution and each reaction solution were purified with a Chroma Spin-100+DEPC-H2O Column according to the protocol attached, and they were used as the template for TaqMan PCR (Template). In order to draw the calibration curve, the standard solution was diluted by every 5 times for 5 steps and each solution was used for TaqMan PCR. TaqMan PCR was carried out in ABCA1 and β-actin. As Primers for use in the TaqMan PCR, 4 oligonucleotides (abca1 forward (S3), abca1 reverse (AS3), β-actin forward (S4) and β-actin reverse (AS4)) were designed which are shown in sequences No. 5 to 8 in the sequence table described later. The synthesis and purification of these 4 oligomers was ordered from Amersham Pharmacia Biotech Co.
As FAM-TAMRA labelled TaqMan Probe, 2 kinds of oligonucleotides (abca1 (p1) and β-actin (p2)) were designed and were ordered from Applied Biosystems Co. to synthesize and purify.
The following reaction mixture of ABCA1 or β-actin was divided into 2 wells of a MicroAmp Optical 96-well Reaction Plate (Applied Biosystem Co.). TaqMan Universal PCR Master Mix was purchased from Applied Biosystem Co.
The plate was covered with a MicroAmp Optical Cap (Applied Biosystems Co.), and TaqMan PCR was carried out by using an ABI PRISM 7,700 Sequence Detection System (Applied Biosystem Co.) under the following conditions:
An analysis was made according to the procedures described in the manual of Sequence Detection Software (Applied Biosystem Co.) and the increased rate of ABCA1 mRNA due to the test compound was calculated based on the following equation.
A: Amount of the ABCA1 mRNA in the presence of the test compound
B: Amount of the β-actin mRNA in the presence of the test compound
C: Amount of the ABCA1 mRNA in the presence of DMSO
D: Amount of the β-actin mRNA in the presence of DMSO
Increase Rate (%) of ABCA1 mRNA=(A/B)/(C/D)×100

[3] = read-out: Preventing rate against liver injury, ALT (%)
[4] = read-out: Preventing rate against liver injury, AST (%)

SMILES | inhibition in vivo at 10000 µg/mL, 100 mg/kg [1, 3] [%] | inhibition in vivo at 10000 µg/mL, 100 mg/kg [1, 4] [%] | Rate of Increase (%) of ABCA1 mRNA [2] [%]
Cc1ccc(NC(=O)c2cc([N+](=O)[O-])ccc2Cl)cc1 [Example 1, N-(4-Methylphenyl)-(2-chloro-5-nitrophenyl)carboxamide] | 40.1 | 19 | 
O=C(Nc1ccc(-c2ccccc2)cc1)c1cc([N+](=O)[O-])ccc1Cl [Example 2, N-(4-Phenylphenyl)-(2-chloro-5-nitrophenyl)carboxamide] | 64.5 | 4.1 | 
O=C(Nc1ccc(-c2ccccn2)cc1)c1cc([N+](=O)[O-])ccc1Cl [Example 8, N-[4-(2-Pyridyl)phenyl]-(2-chloro-5-nitrophenyl)carboxamide] | 57 | 56 | 
Cc1ccc2nc(-c3ccc(NC(=O)c4cc([N+](=O)[O-])ccc4Cl)cc3)sc2c1 [Example 10, N-[4-(6-Methylbenzothiazol-2-yl)phenyl]-(2-chloro-5-nitrophenyl)carboxamide] | 55.9 | 49 | 
CCCCCc1ccc(NC(=O)c2cc([N+](=O)[O-])ccc2Cl)cc1 [Example 16, N-(4-Pentylphenyl)-(2-chloro-5-nitrophenyl)carboxamide] | 44.4 | 21.4 | 
N#Cc1ccc(NC(=O)c2cc([N+](=O)[O-])ccc2Cl)cc1 [Example 20, N-(4-Cyanophenyl)-(2-chloro-5-nitrophenyl)carboxamide] | 67.2 | 77 | 
O=C(Nc1nc(-c2ccccc2)cs1)c1cc([N+](=O)[O-])ccc1Cl [Example 35, N-(4-Phenylthiazol-2-yl)-(2-chloro-5-nitrophenyl)carboxamide] | 12.4 |  | 
O=C(Nc1nc(-c2cccnc2)cs1)c1cc([N+](=O)[O-])ccc1Cl [Example 37, N-[4-(3-Pyridyl)thiazol-2-yl)-(2-chloro-5-nitrophenyl)carboxamide] | 20.7 |  | 
COc1cnc(NS(=O)(=O)c2ccc(NC(=O)c3cc([N+](=O)[O-])ccc3Cl)cc2)nc1 [Example 105, N-[4-[(5-Methoxypyrimidin-2-yl)aminosulfonyl]phenyl]-(2-chloro-5-nitrophenyl)carboxamide] | 22.4 | 27.5 | 
N=C(N)NS(=O)(=O)c1ccc(NC(=O)c2cc([N+](=O)[O-])ccc2Cl)cc1 [Example 106, N-[4-(Amidinoaminosulfonyl)phenyl]-(2-chloro-5-nitrophenyl)carboxamide] | 114 | 106 | 
O=C(Nc1ccc(S(=O)(=O)Nc2cccnc2)cc1)c1cc([N+](=O)[O-])ccc1Cl [Example 178] | 50.5 | 64.5 | 
CCCCCCCCN(CCCC)c1ccc(-c2ccc(NC(=O)c3cc([N+](=O)[O-])ccc3Cl)cc2)cc1.Cl [Example 223, N-[4-[4-(N-Butyl-N-octylamino)phenyl]phenyl]-(2-chloro-5-nitrophenyl)carboxamide mono-hydrochloride] |  |  | 204.0
CCCCCCCCN(CCC)c1ccc(-c2ccc(NC(=O)c3cc([N+](=O)[O-])ccc3Cl)cc2)cc1 [Example 224, N-[4-[4-(N-Octyl-N-propylamino)phenyl]phenyl]-(2-chloro-5-nitrophenyl)carboxamide] |  |  | 179.0
O=C(Nc1ccc(CCNC(=S)Nc2cccnc2)cc1)c1cc([N+](=O)[O-])ccc1Cl [Example 273, N-[4-[2-(Pyridin-3-yl)aminothiocarbonylaminoethyl]phenyl]-(2-chloro-5-nitrophenyl)carboxamide] |  |  | 146.0
